Where no end group is shown, it is not given here.
Experiments:
Assay in all cases: PRISM Matrix ELISA G assay, peptide titration
Format in all cases: binding
[1] = target: T1, PDZ protein ZO-1 d2 (domain 2) (Homo sapiens, UniProt Q07157, DEL264-264); details: for EC50: read-out: EC50 of binding to the PDZ protein ZO-1 d2, regular G assay titration, GST/PDZ fusion (FIG. 1B, FIG. 4B); for binding to the PDZ protein ZO-1 d2, in words: summary of the titrations
T1 construct: made in house
T1 sequence (Q07157 with tags, fused parts or gaps DEL264-264): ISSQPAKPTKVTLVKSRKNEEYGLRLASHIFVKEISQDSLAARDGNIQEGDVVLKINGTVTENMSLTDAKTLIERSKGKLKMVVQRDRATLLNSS
Experimental: (§1) (1) A PDZ-domain polypeptide is bound to a surface, e.g. a protein binding surface. In a preferred embodiment, a GST/PDZ fusion protein containing one or more PDZ domains is bound to a polystyrene 96-well plate. […] In one embodiment, the GST/PDZ fusion protein is bound via an anti-GST antibody that is coated onto the 96-well plate. Adequate binding to the plate can be achieved when: • a. 100 μL per well of 5 μg/mL goat anti-GST polyclonal antibody (Pierce) in PBS is added to a polystyrene 96-well plate (e.g., Nunc Polysorb) at 4° C. for 12 hours. • b. The plate is blocked by addition of 200 μL per well of PBS/BSA for 2 hours at 4° C. • c. The plate is washed 3 times with PBS. • d. 50 μL per well of 5 μg/mL GST/PDZ fusion protein) or, as a negative control, GST polypeptide alone (i.e. not a fusion protein) in PBS/BSA is added to the plate for 2 hours at 4° C. • e. the plate is again washed 3 times with PBS.
(§2) (2) Biotinylated PL peptides are allowed to react with the surface by addition of 50 μL per well of 20 μM solution of the biotinylated peptide in PBS/BSA for 10 minutes at 4° C., followed by an additional 20 minute incubation at 25° C. The plate is washed 3 times with ice cold PBS.
(§3) (3) The binding of the biotinylated peptide to the GST/PDZ fusion protein surface can be detected using a variety of methods and detectors. In an exemplary procedure, 100 μL per well of 0.5 μg/mL streptavidin-horse radish peroxidase (HRP) conjugate dissolved in BSA/PBS is added and allowed to react for 20 minutes at 4° C. The plate is then washed 5 times with 50 mM Tris pH 8.0 containing 0.2% Tween 20, and developed by addition of 100 μL per well of HRP-substrate solution (TMB, Dako) for 20 minutes at room temperature (RT). The reaction of the HRP and its substrate is terminated by addition of 100 μL per well of 1 M sulfuric acid, and the optical density (O.D.) of each well of the plate is read at […].
(§4) (4) Specific binding of a PL peptide and a PDZ domain polypeptide is determined by comparing the signal from the well(s) in which the PL peptide and PDZ domain polypeptide are combined, with the background signal(s). The background signal is the signal found in the negative control(s). Typically a specific or selective reaction is at least twice background signal, more typically more than 5 times background, and most typically 10 or more times the background signal. In addition, a statistically significant reaction involves multiple measurements of the reaction with the signal and the background differing by at least two standard errors, more typically four standard errors, and most typically six or more standard errors. Correspondingly, a statistical test (e.g. a T-test) comparing repeated measurements of the signal with -repeated measurements of the background will result in a p-value <0.05, more typically a p-value <0.01, and most typically a p-value <0.001 or less. As noted, in an embodiment of the “G” assay, the signal from binding of a given PL peptide to immobilized (surface bound) GST polypeptide alone is one suitable negative control (sometimes referred to as “B 1”). Because all measurement are done in multiples (i.e. at least duplicate) the arithmetic mean (or, equivalently, average) of several measurements is used in determining the binding, and the standard error of the mean is used in determining the probable error in the measurement of the binding. The standard error of the mean of N measurements equals the square root of the following: the sum of the squares of the difference between each measurement and the mean, divided by the product of (N) and (N−1). Thus, in one embodiment, specific binding of the PDZ protein to the platebound peptide is determined by comparing the mean signal (“mean S”) and standard error of the signal (“SE”) for a particular PL-PDZ combination with the mean B I.
(§5) Two different types of ELISA assays were used to test the HIV Peptides 1904 and 1905. […]

[2] = target: T2, PDZ protein NSP (Homo sapiens, UniProt Q92743); details: for binding to the PDZ protein NSP, in words: summary of the titrations
T2 construct: made in house
T2 sequence (Q92743 359-473): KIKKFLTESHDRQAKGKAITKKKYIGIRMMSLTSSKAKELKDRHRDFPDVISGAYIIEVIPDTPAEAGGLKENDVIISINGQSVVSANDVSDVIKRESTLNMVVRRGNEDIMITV
Experimental: as §1, §2, §3, §4, §5

[3] = target: T3, PDZ protein Rim2 (Homo sapiens, UniProt Q9UQ26); details: for EC50: read-out: EC50 of binding to the PDZ protein Rim2, regular G assay titration, GST/PDZ fusion (FIG. 1C, FIG. 4C); for binding to the PDZ protein Rim2, in words: summary of the titrations
T3 construct: made in house
T3 sequence (Q9UQ26 632-757): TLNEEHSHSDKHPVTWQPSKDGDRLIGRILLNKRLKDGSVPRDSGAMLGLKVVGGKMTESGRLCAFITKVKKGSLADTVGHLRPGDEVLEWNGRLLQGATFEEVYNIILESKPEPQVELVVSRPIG
Experimental: as §1, §2, §3, §4, §5

For YGRKKRRQRRRRQGFERALL-OH [Peptide 1905], the EC50 [1] was 184 nM, the “binding to the PDZ protein ZO-1 d2, in words” value [1] was “strong binding” and the EC50 ([2]; read-out: EC50 of binding to the PDZ protein NSP, regular G assay titration, GST/PDZ fusion (FIG. 1D, FIG. 4D)) was 166 nM. The “binding to the PDZ protein NSP, in words” value [2] was “strong binding”, the EC50 [3] was 182 nM and the “binding to the PDZ protein Rim2, in words” value [3] was “strong binding”.

YGRKKRRQRRRRQGLERILL-OH [Peptide 1904] was tested, and the EC50 [1] was 170 nM, the “binding to the PDZ protein ZO-1 d2, in words” value [1] was “strong binding” and the “binding to the PDZ protein NSP, in words” value [2] was “strong binding”. For the same substance, the EC50 [3] was 410 nM and the “binding to the PDZ protein Rim2, in words” value [3] was “strong binding”.

Source: patent US20070014803A1, “METHODS AND COMPOSITIONS FOR DIAGNOSIS AND TREATMENT OF VIRAL AND BACTERIAL INFECTIONS” (Arbor Vita Corporation, priority 2005, published 2007)
